Measured values as given in patent publication US20120101121A1, “DRUG DEMONSTRATING ANXIOLYTIC EFFECT BASED ON HYDROGENATED PYRIDO (4,3-B) INDOLES, ITS PHARMACOLOGICAL COMPOUND AND APPLICATION METHOD” (Medivation Neurology ,Inc., priority 2007, published 2012).

Assays:
AMPA receptors = conditions: cerebral neurons in rats; cited from earlier work
white outbred male rats [1] = test: Elevated plus-maze (EPM) in rats; conditions: for Latent time / Number of entries into bright arms / Number of entries into dark arms / Time in bright arms / Total number of crossings: 40 min after dosing, 5 min observation
Protocol: The model is based on stress and fear, which appear in animals while displaying orientation-investigative behavior and burrowing reflex under the complicated conditions of elevated plus-maze (novelty of surroundings, fear of height and illumination).
EPM for rats is performed in a chamber consisting of four compartments formed by the crossing of two strips measuring 50×10 cm. Two opposing compartments have vertical walls 40 cm high (protected dark arms), while two others (unprotected open bright arms) are free from protective walls. The maze is elevated 50 cm off the floor. At the center of the chamber where the two strips cross, there is a central platform measuring 10×10 cm. Rats were placed on the central platform with their tails facing an open bright arm. Time remaining on the central platform, time spent by the animals inside the open arms, and the number of entries into open and closed arms were recorded. The total observation time for each animal was 5 minutes. The main criterion of anxiolytic effect is the measure of time spent in the open bright arm of the setup. The number of crossings the central platform (number of entries into the dark and bright arms of the maze and the sum thereof) was used to estimate the effect of compounds on orientation-investigative behavior and motion activity of rats.
Experiments were conducted using white outbred male rats weighing 240 g to 280 g. Before beginning the test, experimental animals were randomly separated into groups of at least 10 rats. […] Rats in the control group received 0.2 ml water per 100 g mass administered intraperitoneally. Data was recorded beginning forty minutes after administration of the compounds.

outbred white male rats = test: Vogel conflict situation test (punishable drinkings); assay type: in vivo, rat; conditions: for No. of punishable drinkings: 40 min before test, 10 min registration
Protocol: 93-113). Such conflict situations most frequently lead to stress and neurotic diseases.
The tests were conducted using outbred white male rats with body weights between 220 g and 250 g. […] The conflict situation was created by suppressing the drinking reflex during water consumption from the drinking tube using algesic electric stimulus (i.e., electric shock causing pain). Thus, the Vogel conflict method is based on the conflict of two motivations: drinking and defensive. Thus, the animal fears punishment when attempting to satisfy its thirst, and that fear suppresses typical animal behavior. The animal cannot satisfy its thirst, creating an imbalance between what is desirable and what is real, thereby resulting in a stressful situation, accompanied by anxiety and fear of receiving an additional algesic electric stimulus. If a test compound has anxiolytic effect, it will enable the animal to overcome anxiety and fear of the punishment factor, restoring the ability to drink despite the possibility of receiving additional algesic electric stimuli, measured as an increase in incidents of punishable responses, i.e., drinking, despite the continued risk of receiving algesic electric stimuli.
The experimental setup consists of three parts: 4 experimental chambers, an electronic unit and a counting device. The experimental chamber measures 275×275×450 mm and is made of Plexiglas. It is installed on a standard electrode floor made of 4 mm diameter stainless steel rods spaced by 8-10 mm apart. Attached to the side wall of each chamber is a standard drinking tube attached to a glass container including a stainless steel nipple. In the device, the drinking tube is installed within common space of the chamber, not in the darkened section. The nipple extends 2 cm into the chamber at a height of 5 cm from the floor. The reason for such arrangement is that once exposed to a new environment, the animals instinctively attempt to hide in the dark section, and therefore may accidentally find a drinking tube, not as a consequence of purposeful search to satisfy the motivation. The electrode floor and the nipple of the drinking tube are connected to the electronic unit. The electronic unit contains current stabilizers (one per channel, which provides the possibility of independent current regulation), output signal generators for the counting device and delay generators for supplying punishing current to the drinking tube during the day of the experiment. That arrangement permits registration of non-punishable drinkings while establishing a drinking habit (trainings without supplying current to the drinking tubes), administration of a punishment current, and recordation of signals from punishable drinkings during the experiment.
The counting device enables registration of non-punishable drinkings during training and punishable drinkings during the experiment. Registration of readings was conducted using Pentium III personal computer with a 550 MHz C.P.U., a special device for converting output signals from the electronic unit into standard pulses suitable for inputting to the computer via a serial port, and a program written in BASIC (Beginner's All-Purpose Symbolic Instruction Code) for recording events and time intervals into disc files. The data accumulated in these files was later analyzed with the statistical package Statistica® for Windows®.
The experiment was conducted for 3 days. On the first day, the animals were completely deprived of water. On the second day, i.e., after 24-hours without water, animals were allowed to establish a habit of taking water from the drinking tube. To achieve this, animals were placed in the experimental chamber for 5 minutes. Typically, each animal surveyed the chamber and after a period of time found a drinking tube and started to drink. On the […] day, a weak current of 50 μA was applied to the drinking tube and the chamber floor. […]

NMDA receptors = conditions: cerebral neurons in rats; cited from earlier work
SAM-P/10 mice = test: Elevated plus-maze in SAM-P/10 mice with genetically determined anxiety; assay type: in vivo, mouse; conditions: 11-month old SAM-P/10 mice; for Latent time / Number of entries into bright arms / Number of entries into dark arms / Time in bright arms / Total number of crossings: 40 min prior to testing, 5 min observation
Text: One of the modern methods of studying the anxiolytic effect of drugs uses a mouse strain with an increased level of anxiety. This study utilized mice of the SAM-P/10 line (Takeda, T., et al., “Senescence-Accelerated Mouse (SAM): A Novel Murine Model of Accelerated Senescence,” J. Amer. Geriatr. Soc., 1991, v. 39, pp. 911-919) weighing between 26 g and 31 g, in which, among other changes, a genetically determined anxiety is observed. […] Those symptoms actively accumulate beginning from the age of 6-months (accelerated aging) (Miyamoto, M., “Indicators of age-related behavioral changes in Senescence-Accelerated Mouse SAMP8 and SAMP10,” Exp. Gerontol., 1997, v. 32, pp. 139-148; and Shimada, A., et al., “Age-related deterioration in conditional avoidance task in the SAM-P/10 mouse, an animal model of spontaneous brain atrophy,” Brain Res., 1993, v. 608, pp. 266-272).
This study utilized SAM-P/10 (Senescence-Accelerated Mouse P10) mice in two age groups—3-months and 11-months old. A group of 3-month old animals and a group of 11-month old animals were each divided into three subgroups: one group received Dimebon at a dose of 0.05 mg/kg, the second group received Dimebon at a dose of 2 mg/kg, and the third group received physiological saline. All substances were administered intraperitoneally 40 minutes prior to testing in the amount of 0.1 ml per 10 g of mouse weight. This study was conducted during the first half of the day from 10:00 a.m. to 2:00 p.m.
The maze is elevated 30 cm off the floor. […] Time spent by mice in the open arms of the maze was used as a main indicator of anxiety level.

white outbred male rats [2] = test: Open field test under stress; conditions: for Exits to the center of the field / Horizontal activity / Surveyed holes / Vertical activity: 40 min after dosing, 3 min observation
Protocol: The “open field” test uses a method of creating stress based on a rat's fear of new surroundings, open space and bright illumination.
An open field setup used in this study consisted of a one meter square box (1 m×1 m×1 m) with a clear top. The floor of the chamber was uniformly divided by lines into 9 squares, with 16 2.5 cm diameter holes. Before the experiment, rats were kept in the dark for 10 minutes, after which they were placed onto one of the peripheral squares of the open field. […] During the experiment the following information was recorded: the number of crossed squares on the periphery and in the center (separately), the number of vertical stands, the number of times holes were surveyed, and the number of exits to the center of the open field.
The main indicator of anxiolytic effect of the drugs was the measure of number of exits by the rat to the center of illuminated field. Increase or decrease in the number of horizontal or vertical movements reflected sedative or stimulating effect of the drug, while the number of holes surveyed reflects orientation-investigative behavior of the rat.
Experiments were conducted using white outbred male rats weighing 240 g to 280 g. Before the beginning of the test, experimental animals were randomly separated into groups containing at least 10 rats. […] Rats in the control group received 0.2 ml water per 100 g mass administered intraperitoneally. Data was recorded beginning 40 minutes after administering the compounds.

SMILES: Cc1ccc2c(c1)c1c(n2CCc2ccc(C)nc2)CCN(C)C1 [Dimebon, 2,8-dimethyl-5-[2-(6-methyl-3-pyridyl)ethyl]-2,3,4,5-tetrahydro-1H-pyrido[4,3-b]indole]
- Effect on transmembrane currents caused by activation of the AMPA receptors (AMPA receptors): potentiates
- Time spent inside the open arms relative to control (white outbred male rats [1]; 0.1 mg/kg i.p.): nearly five times as long as the control
- Latent time (white outbred male rats [1]; 0.1 mg/kg i.p.): 3.43 ± 0.53 s
- Number of entries into bright arms (white outbred male rats [1]; 0.1 mg/kg i.p.): 1.86 ± 1.00
- Number of entries into dark arms (white outbred male rats [1]; 0.1 mg/kg i.p.): 5.86 ± 1.53
- Time in bright arms (white outbred male rats [1]; 0.1 mg/kg i.p.): 20.00 ± 7.75 s
- Total number of crossings (white outbred male rats [1]; 0.1 mg/kg i.p.): 7.71 ± 2.25
- Increase in the number of entries into the open arms (white outbred male rats [1]; 2 mg/kg i.p.): more than twice
- Latent time (white outbred male rats [1]; 2.0 mg/kg i.p.): 2.93 ± 0.41 s
- Number of entries into bright arms (white outbred male rats [1]; 2.0 mg/kg i.p.): 4.25 ± 1.18
- Number of entries into dark arms (white outbred male rats [1]; 2.0 mg/kg i.p.): 7.10 ± 3.21
- Time in bright arms (white outbred male rats [1]; 2.0 mg/kg i.p.): 26.34 ± 8.12 s
- Total number of crossings (white outbred male rats [1]; 2.0 mg/kg i.p.): 11.60 ± 3.30
- Increase in total number of crossings (white outbred male rats [1]; 2 mg/kg i.p., P≦0.05): 2 times
- No. of punishable drinkings (outbred white male rats; 0.05 mg/kg i.p.): 171.31 ± 15.67
- No. of punishable drinkings (outbred white male rats; 0.1 mg/kg i.p.): 261.18 ± 29.74
- No. of punishable drinkings (outbred white male rats; 2.0 mg/kg i.p.): 354.25 ± 32.49
- No. of punishable drinkings (outbred white male rats; 5.0 mg/kg i.p.): 405.33 ± 26.35
- Change in punishable drinkings versus control (in words) (outbred white male rats; dose range 0.1 to 5 mg/kg i.p.): statistically significant increase
- Sedative and muscle relaxant side effects (in words) (outbred white male rats; doses 0.1-5.0 mg/kg): lacks the sedative and muscle relaxant side effects
- Effect on NMDA receptors (NMDA receptors): blocking
- Time spent in the open, unprotected arms relative to control (in words) (SAM-P/10 mice; 0.05 mg/kg): doubled
- Latent time (SAM-P/10 mice; 0.05 mg/kg i.p.): 7.5 ± 1.5 s
- Number of entries into bright arms (SAM-P/10 mice; 0.05 mg/kg i.p.): 1.9 ± 1.0
- Number of entries into dark arms (SAM-P/10 mice; 0.05 mg/kg i.p.): 5.86 ± 1.53
- Time in bright arms (SAM-P/10 mice; 0.05 mg/kg i.p.): 8.7 ± 3.3 s
- Total number of crossings (SAM-P/10 mice; 0.05 mg/kg i.p.): 11.7 ± 1.5
- Increase in the number of entries into the open arms (SAM-P/10 mice; 2 mg/kg): more than 4 fold
- Increase in the time spent in the open arms (SAM-P/10 mice; 2 mg/kg): more than 4 fold
- Latent time (SAM-P/10 mice; 2.0 mg/kg i.p.): 6.0 ± 1.4 s
- Number of entries into bright arms (SAM-P/10 mice; 2.0 mg/kg i.p.): 4.2 ± 1.1
- Number of entries into dark arms (SAM-P/10 mice; 2.0 mg/kg i.p.): 7.10 ± 3.21
- Time in bright arms (SAM-P/10 mice; 2.0 mg/kg i.p.): 17.7 ± 5.2 s
- Total number of crossings (SAM-P/10 mice; 2.0 mg/kg i.p.): 18.1 ± 5.3
- Exits to the center of the field (white outbred male rats [2]; 0.1 mg/kg i.p.): 0.8 ± 0.3
- Horizontal activity (white outbred male rats [2]; 0.1 mg/kg i.p.): 21.7 ± 5.9
- Surveyed holes (white outbred male rats [2]; 0.1 mg/kg i.p.): 12.3 ± 1.7
- Vertical activity (white outbred male rats [2]; 0.1 mg/kg i.p.): 7.8 ± 1.3
- Exits to the center of the field (white outbred male rats [2]; 2 mg/kg i.p.): 1.5 ± 0.2
- Horizontal activity (white outbred male rats [2]; 2 mg/kg i.p.): 20.3 ± 6.1
- Surveyed holes (white outbred male rats [2]; 2 mg/kg i.p.): 11.2 ± 2.6
- Vertical activity (white outbred male rats [2]; 2 mg/kg i.p.): 6.9 ± 3.2
- Exits to the center of the field (white outbred male rats [2]; 5 mg/kg i.p.): 2.2 ± 0.3
- Horizontal activity (white outbred male rats [2]; 5 mg/kg i.p.): 19.2 ± 2.4
- Surveyed holes (white outbred male rats [2]; 5 mg/kg i.p.): 13.5 ± 1.9
- Vertical activity (white outbred male rats [2]; 5 mg/kg i.p.): 9.3 ± 2.4
- Effect on number of horizontal and vertical movements and surveyed holes (in words) (white outbred male rats [2]; doses of 0.1, 2 and 5 mg/kg): did not cause a decrease
- Anxiolytic effect in the open field test (in words) (white outbred male rats [2]; doses of 2 and 5 mg/kg): significant, pronounced anxiolytic effect

SMILES: CN1C(=O)CN=C(c2ccccc2)c2cc(Cl)ccc21 [Diazepam ®, reference compound]
- Sedative effect in elevated plus-maze (in words) (white outbred male rats [1]; 2 mg/kg i.p.): sedative, depriming effect
- Latent time (white outbred male rats [1]; 2.0 mg/kg i.p.): 7.68 ± 2.0 s
- Number of entries into bright arms (white outbred male rats [1]; 2.0 mg/kg i.p.): 2.12 ± 1.08
- Number of entries into dark arms (white outbred male rats [1]; 2.0 mg/kg i.p.): 2.20 ± 0.47
- Time in bright arms (white outbred male rats [1]; 2.0 mg/kg i.p.): 25.6 ± 6.87 s
- Total number of crossings (white outbred male rats [1]; 2.0 mg/kg i.p.): 4.32 ± 1.01
- No. of punishable drinkings (outbred white male rats; 2.0 mg/kg i.p.): 372.71 ± 27.81
- Side effects at the anxiolytic dose (in words) (outbred white male rats; therapeutic dose of 2 mg/kg): sedation, reduction in motion activity and impaired coordination
- Effect on horizontal and vertical motion activity within the open field (in words) (white outbred male rats [2]; 2 mg/kg): significantly suppressed
- Exits to the center of the field (white outbred male rats [2]; 2 mg/kg i.p.): 1.8 ± 0.3
- Horizontal activity (white outbred male rats [2]; 2 mg/kg i.p.): 10.2 ± 1.4
- Surveyed holes (white outbred male rats [2]; 2 mg/kg i.p.): 6.5 ± 1.9
- Vertical activity (white outbred male rats [2]; 2 mg/kg i.p.): 3.4 ± 1.3
